Test results as given in ChEMBL document CHEMBL5614443, “Hybrids of 3-Hydroxypyridin-4(1H)-ones and Long-Chain 4-Aminoquinolines as Potent Biofilm Inhibitors of Pseudomonas aeruginosa Potentiate Tobramycin and Polymyxin B Activity” (J Med Chem, 2024).
Activity calls are given as the source filed them. The calls are words filed in the database; no cut-off is given here.

Key:
Pseudomonas aeruginosa [1] = test: Antivirulence activity in Pseudomonas aeruginosa clinical isolate 0815 assessed as reduction in elastase production at 10 uM incubated for 24 hrs by elastin-congo red dye based absorbance assay; type: functional, organism-based
Pseudomonas aeruginosa [2] = test: Antibiofilm activity against Pseudomonas aeruginosa clinical isolate 0815 assessed as reduction in biofilm content at 10 uM incubated for 24 hrs by crystal violet staining based analysis; type: functional, organism-based
Pseudomonas aeruginosa [3] = test: Synergistic antibacterial activity against Pseudomonas aeruginosa PAO1 assessed as fold reduction in bacterial survival rate incubated for 24 hrs in presence of tetracycline by LB agar plate method; type: functional
Pseudomonas aeruginosa [4] = test: Synergistic antibacterial activity against Pseudomonas aeruginosa clinical isolate 1167 assessed as reduction in bacterial viability at 10 to 50 uM incubated for 24 hrs in presence of 1/2 MIC of tobramycin by LB agar plate method; type: functional, organism-based; details: dose 10-50 µM
[5] = Inhibition of quorum sensing system in wildtype Pseudomonas aeruginosa PAO1 assessed as inhibition of elastase production incubated for 24 hrs by elastin-congo red dye based absorbance assay
[6] = Inhibition of quorum sensing system in Pseudomonas aeruginosa PAO1 transfected with mini-ctx-lacZ reporter gene assessed as decrease in beta-galactosidase activity at 1.25 to 20 uM incubated for 6 hrs by Miller assay; details: dose 1.25-20 µM
Pseudomonas aeruginosa [7] = test: Antivirulence activity in Pseudomonas aeruginosa clinical isolate 1121 assessed as reduction in elastase production at 10 uM incubated for 24 hrs by elastin-congo red dye based absorbance assay; type: functional, organism-based
Pseudomonas aeruginosa [8] = test: Antibacterial activity against Pseudomonas aeruginosa clinical isolate 1121 assessed as inhibition of bacterial growth incubated for 24 hrs by CLSI protocol based method; type: functional, organism-based
Pseudomonas aeruginosa [9] = test: Antibacterial activity against Pseudomonas aeruginosa PAO1 infected in Caenorhabditis elegans assessed as worm survival rate at 50 uM measured after 96 hrs in presence of polymyxin B at 1/2 MIC by bright field microscopic analysis relative to control; type: functional
Pseudomonas aeruginosa [10] = test: Antibacterial activity against Pseudomonas aeruginosa PAO1 infected in Caenorhabditis elegans assessed as worm survival at 50 uM by bright-field microscopic analysis (reference value: 24 hrs); type: functional
Pseudomonas aeruginosa [11] = test: Synergistic antibacterial activity against Pseudomonas aeruginosa clinical isolate 1167 assessed as reduction in bacterial viability at 10 to 50 uM incubated for 24 hrs in presence of 1/8 MIC of tobramycin by LB agar plate method; type: functional, organism-based; details: dose 10-50 µM
Pseudomonas aeruginosa [12] = test: Antibacterial activity against Pseudomonas aeruginosa clinical isolate 1065 assessed as inhibition of bacterial growth incubated for 24 hrs by CLSI protocol based method; type: functional, organism-based
Pseudomonas aeruginosa [13] = test: Antibiofilm activity against Pseudomonas aeruginosa harboring pvds-deficient mutant assessed as inhibition of biofilm formation at 0.1 to 20 uM incubated for 24 hrs by crystal violet staining based analysis; type: functional, organism-based; details: dose 0.1-20 µM
[14] = Cytotoxicity against African green monkey Vero cells assessed as reduction in cell viability at 200 uM incubated for 24 hrs by MTT assay; type: toxicity, cell-based; details: chlorocebus sabaeus
Pseudomonas aeruginosa [15] = test: Antivirulence activity in Pseudomonas aeruginosa clinical isolate 1121 assessed as reduction in pyocyanin production at 10 uM incubated for 24 hrs by absorbance based analysis; type: functional, organism-based
Pseudomonas aeruginosa [16] = test: Synergistic antibacterial activity against Pseudomonas aeruginosa PAO1 assessed as reduction in cell viability at 10 to 50 uM incubated for 24 hrs in the presence of 1/4 MIC of tobramycin by LB agar plate method; type: functional, organism-based; details: dose 10-50 µM
Pseudomonas aeruginosa [17] = test: Antivirulence activity in Pseudomonas aeruginosa clinical isolate 1167 assessed as reduction in elastase production at 10 uM incubated for 24 hrs by elastin-congo red dye based absorbance assay; type: functional, organism-based
Pseudomonas aeruginosa [18] = test: Synergistic antibacterial activity against Pseudomonas aeruginosa PAO1 assessed as fold reduction in bacterial survival rate incubated for 24 hrs in presence of erythromycin by LB agar plate method; type: functional
Pseudomonas aeruginosa [19] = test: Antivirulence activity in Pseudomonas aeruginosa clinical isolate 1167 assessed as reduction in pyocyanin production at 10 uM incubated for 24 hrs by absorbance based analysis; type: functional, organism-based
[20] = Cytotoxicity against African green monkey Vero cells assessed as reduction in cell viability incubated for 24 hrs by MTT assay; type: toxicity, cell-based; details: chlorocebus sabaeus
Pseudomonas aeruginosa [21] = test: Antibacterial activity against Pseudomonas aeruginosa clinical isolate 1129 assessed as inhibition of bacterial growth incubated for 24 hrs by CLSI protocol based method; type: functional, organism-based
Pseudomonas aeruginosa [22] = test: Antibacterial activity against Pseudomonas aeruginosa clinical isolate FB assessed as inhibition of bacterial growth incubated for 24 hrs by CLSI protocol based method; type: functional, organism-based
Pseudomonas aeruginosa [23] = test: Induction of Fe3+ chelating activity in Pseudomonas aeruginosa PAO1 assessed as increase in pyoverdine production by measuring fold change at 50 uM incubated for 24 hrs by fluorescence microplate reader
Pseudomonas aeruginosa [24] = test: Synergistic antibacterial activity against Pseudomonas aeruginosa clinical isolate 1121 assessed as reduction in bacterial viability at 10 to 50 uM incubated for 24 hrs in presence of 1/4 MIC of tobramycin by LB agar plate method; type: functional, organism-based; details: dose 10-50 µM
Pseudomonas aeruginosa [25] = test: Synergistic antibacterial activity against Pseudomonas aeruginosa clinical isolate 0815 assessed as reduction in bacterial viability at 10 to 50 uM incubated for 24 hrs in presence of 1/4 MIC of polymyxin B by LB agar plate method; type: functional, organism-based; details: dose 10-50 µM
Pseudomonas aeruginosa [26] = test: Synergistic antibacterial activity against Pseudomonas aeruginosa clinical isolate 1121 assessed as fold reduction in bacterial viability at 50 uM incubated for 24 hrs in presence of 1/2 MIC of tobramycin by LB agar plate method relative to tobramycin alone; type: functional
Pseudomonas aeruginosa [27] = test: Antibacterial activity against Pseudomonas aeruginosa PAO1 assessed as bacterial survival rate at 10 to 50 uM incubated for 24 hrs by LB agar plate method relative to control; type: functional; details: dose 10-50 µM
Pseudomonas aeruginosa [28] = test: Antibacterial activity against Pseudomonas aeruginosa clinical isolate 0815 assessed as inhibition of bacterial growth incubated for 24 hrs by CLSI protocol based method; type: functional, organism-based
Pseudomonas aeruginosa [29] = test: Antibacterial activity against Pseudomonas aeruginosa clinical isolate 1031 assessed as inhibition of bacterial growth incubated for 24 hrs by CLSI protocol based method; type: functional, organism-based
Pseudomonas aeruginosa [30] = test: Antivirulence activity in Pseudomonas aeruginosa clinical isolate 1167 assessed as reduction in rhamnolipid production at 10 uM incubated for 24 hrs by absorbance based microtiter plate reader analysis; type: functional, organism-based
Pseudomonas aeruginosa [31] = test: Synergistic antibacterial activity against Pseudomonas aeruginosa clinical isolate 1167 assessed as reduction in bacterial viability at 10 to 50 uM incubated for 24 hrs in presence of 1/4 MIC of tobramycin by LB agar plate method; type: functional, organism-based; details: dose 10-50 µM
Pseudomonas aeruginosa [32] = test: Synergistic antibacterial activity against Pseudomonas aeruginosa PAO1 assessed as reduction in cell viability at 10 to 50 uM incubated for 24 hrs in the presence of 1/2 MIC of tobramycin by LB agar plate method; type: functional, organism-based; details: dose 10-50 µM
Pseudomonas aeruginosa [33] = test: Synergistic antibacterial activity against Pseudomonas aeruginosa PAO1 assessed as fold reduction in bacterial survival rate incubated for 24 hrs in presence of ciprofloxacin by LB agar plate method; type: functional
Pseudomonas aeruginosa [34] = test: Induction of Fe3+ chelating activity in Pseudomonas aeruginosa PAO1 assessed as increase in pyochelin production by measuring fold change at 50 uM incubated for 24 hrs by fluorescence microplate reader
Pseudomonas aeruginosa [35] = test: Synergistic antibacterial activity against Pseudomonas aeruginosa PAO1 assessed as fold reduction in bacterial survival rate at 50 uM incubated for 24 hrs in presence of 1/2 MIC of […] by LB agar plate method relative to polymyxin B alone; type: functional

With `Cc1cc(=O)c(O)c(C(=O)NCCCCCCCCNc2ccnc3cc(Cl)ccc23)n1C.Cl` as the molecule, how does the Activity (Pseudomonas aeruginosa [1]) read?
The Activity was “Active”.

And the Activity (Pseudomonas aeruginosa [2])?
The Activity was “Active”.

What about the “fold change (FC)” value (Pseudomonas aeruginosa [3]) of the same molecule?
Its value is less than 10.

What about the Activity (Pseudomonas aeruginosa [4]) of the same molecule?
Its Activity is “Active”.

And the IC50 [5]?
Its IC50 is 16.7 µM.

What about the inhibition [6] of the same molecule?
The inhibition was “inactive”.

What about the Activity (Pseudomonas aeruginosa [7]) of the same molecule?
The Activity was “Active”.

And the Activity (Pseudomonas aeruginosa [8])?
Its Activity is “inactive”.

What about the survival at 50 µM (Pseudomonas aeruginosa [9]) of the same molecule?
The survival at 50 µM was 91.2%.

And the Survival (Pseudomonas aeruginosa [10])?
Its Survival is 56 h.

And the Activity (Pseudomonas aeruginosa [11])?
Its Activity is “Active”.

And the Activity (Pseudomonas aeruginosa [12])?
Its Activity is “inactive”.

What about the Activity (Pseudomonas aeruginosa [13]) of the same molecule?
The Activity was “Active”.

And the Activity [14]?
The Activity was “Toxic”.

What about the Activity (Pseudomonas aeruginosa [15]) of the same molecule?
Its Activity is “Active”.

And the Activity (Pseudomonas aeruginosa [16])?
Its Activity is “Active”.

And the Activity (Pseudomonas aeruginosa [17])?
Its Activity is “Active”.

And the “fold change (FC)” value (Pseudomonas aeruginosa [18])?
Its value is less than 10.

What about the Activity (Pseudomonas aeruginosa [19]) of the same molecule?
The Activity was “Active”.

And the CC50 at 24 h [20]?
The CC50 at 24 h was greater than 800 µM.

What about the Activity (Pseudomonas aeruginosa [21]) of the same molecule?
Its Activity is “inactive”.

And the Activity (Pseudomonas aeruginosa [22])?
The Activity was “inactive”.

And the fold change (FC) (Pseudomonas aeruginosa [23])?
The fold change (FC) was 16.

What about the Activity (Pseudomonas aeruginosa [24]) of the same molecule?
The Activity was “Active”.

What about the Activity (Pseudomonas aeruginosa [25]) of the same molecule?
The Activity was “Active”.

And the “fold change (FC)” value (Pseudomonas aeruginosa [26])?
Its value is 15.

And the Survival (Pseudomonas aeruginosa [27])?
Its Survival is roughly 100%.

And the Activity (Pseudomonas aeruginosa [28])?
The Activity was “inactive”.

And the Activity (Pseudomonas aeruginosa [29])?
The Activity was “inactive”.

And the Activity (Pseudomonas aeruginosa [30])?
Its Activity is “Active”.

And the Activity (Pseudomonas aeruginosa [31])?
The Activity was “Active”.

What about the Activity (Pseudomonas aeruginosa [32]) of the same molecule?
The Activity was “Active”.

What about the “fold change (FC)” value (Pseudomonas aeruginosa [33]) of the same molecule?
The value was less than 10.

And the fold change (FC) (Pseudomonas aeruginosa [34])?
Its fold change (FC) is 2.

And the “fold change (FC)” value (Pseudomonas aeruginosa [35])?
The value was roughly 100.
